What was measured:
H1047R PIK3CA enzyme = H1047R PIK3CA enzyme (Homo sapiens, UniProt P42336, H1047R); test: ADP-Glo Biochemical PIK3CA Kinase Assay
cells = conditions: Homo sapiens, MCF-10A, read-out: MCF10A IC50

Sequence of H1047R PIK3CA enzyme (P42336 whole entry H1047R): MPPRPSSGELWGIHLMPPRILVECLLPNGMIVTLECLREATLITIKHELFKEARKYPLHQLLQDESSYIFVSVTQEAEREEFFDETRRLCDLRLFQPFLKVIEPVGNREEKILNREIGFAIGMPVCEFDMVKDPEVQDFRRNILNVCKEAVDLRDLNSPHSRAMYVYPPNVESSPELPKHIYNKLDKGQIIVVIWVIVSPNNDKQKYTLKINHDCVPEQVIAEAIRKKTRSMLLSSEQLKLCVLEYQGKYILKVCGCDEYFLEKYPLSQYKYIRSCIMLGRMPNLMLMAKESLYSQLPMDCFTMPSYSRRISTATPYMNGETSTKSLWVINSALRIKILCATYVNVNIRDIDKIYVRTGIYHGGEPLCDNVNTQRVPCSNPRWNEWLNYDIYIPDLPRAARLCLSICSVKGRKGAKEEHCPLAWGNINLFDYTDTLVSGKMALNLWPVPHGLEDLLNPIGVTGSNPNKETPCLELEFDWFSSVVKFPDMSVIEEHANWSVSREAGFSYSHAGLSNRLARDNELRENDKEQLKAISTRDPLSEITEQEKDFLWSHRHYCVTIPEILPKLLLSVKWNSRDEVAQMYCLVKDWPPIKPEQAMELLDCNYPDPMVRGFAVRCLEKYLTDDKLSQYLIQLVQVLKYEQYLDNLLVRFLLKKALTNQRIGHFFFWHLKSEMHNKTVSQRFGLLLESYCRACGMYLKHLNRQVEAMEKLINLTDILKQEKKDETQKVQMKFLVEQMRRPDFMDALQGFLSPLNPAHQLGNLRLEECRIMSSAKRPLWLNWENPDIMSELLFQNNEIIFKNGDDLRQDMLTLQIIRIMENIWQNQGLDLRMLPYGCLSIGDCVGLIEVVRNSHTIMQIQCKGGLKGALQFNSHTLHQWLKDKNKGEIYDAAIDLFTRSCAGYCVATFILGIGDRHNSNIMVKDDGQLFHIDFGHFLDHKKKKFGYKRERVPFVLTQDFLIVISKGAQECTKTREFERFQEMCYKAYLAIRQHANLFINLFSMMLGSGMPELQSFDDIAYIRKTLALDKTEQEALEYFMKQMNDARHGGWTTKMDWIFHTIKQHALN
Sequence of H1047R PIK3CA enzyme (P27986 whole entry partner): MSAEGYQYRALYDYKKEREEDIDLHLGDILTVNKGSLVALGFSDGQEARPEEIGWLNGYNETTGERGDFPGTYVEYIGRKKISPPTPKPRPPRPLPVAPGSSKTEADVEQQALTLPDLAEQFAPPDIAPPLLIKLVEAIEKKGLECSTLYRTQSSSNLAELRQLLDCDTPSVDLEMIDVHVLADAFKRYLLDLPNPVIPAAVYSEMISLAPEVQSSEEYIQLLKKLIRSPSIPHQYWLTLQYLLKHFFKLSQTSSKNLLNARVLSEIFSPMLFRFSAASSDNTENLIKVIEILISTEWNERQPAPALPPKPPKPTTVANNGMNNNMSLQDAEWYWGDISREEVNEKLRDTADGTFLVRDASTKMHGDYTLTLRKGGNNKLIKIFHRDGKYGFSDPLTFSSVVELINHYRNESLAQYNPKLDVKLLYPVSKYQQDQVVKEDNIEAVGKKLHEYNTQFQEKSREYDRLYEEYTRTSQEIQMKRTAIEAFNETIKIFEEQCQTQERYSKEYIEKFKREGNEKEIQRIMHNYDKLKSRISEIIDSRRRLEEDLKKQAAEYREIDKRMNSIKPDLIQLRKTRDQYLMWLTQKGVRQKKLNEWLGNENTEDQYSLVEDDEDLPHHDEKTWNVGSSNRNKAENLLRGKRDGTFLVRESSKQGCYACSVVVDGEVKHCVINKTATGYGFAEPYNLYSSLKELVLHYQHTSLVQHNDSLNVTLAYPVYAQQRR

Row | Compound | IC50 (H1047R PIK3CA enzyme) [nM] | IC50 (cells) [nM]
1 | Nc1cc(NC(=O)N2C[C@@H](O)c3cc(F)ccc32)c2c(c1)C(=O)N[C@@H]2c1cc(F)ccc1Cl (single isomer, unassigned) [Compound I-2410] | ≤ 100 | < 1000
2 | Nc1cc(NC(=O)N2C[C@@H](O)c3cc(F)ccc32)c2c(c1)C(=O)N[C@H]2c1cc(F)ccc1Cl (single isomer, unassigned) [Compound I-2411] | ≤ 100 | 10000 to 36000
3 | NCCc1cc(NC(=O)N2C[C@H](O)c3cc(F)ccc32)c2c(c1)C(=O)N[C@@H]2c1cc(F)ccc1Cl (single isomer, unassigned) [Compound I-2443] | ≤ 100 | 10000 to 36000
4 | O=C1N[C@H](c2cc(F)ccc2Cl)c2c(NC(=O)N3C[C@H](O)c4cc(F)ccc43)cc(-c3ccc(=O)n(C(F)F)c3)cc21 (single isomer, unassigned) [Compound I-2448] | ≤ 100 | 1000 to 5000
5 | CC[C@@]1(O)CN(C(=O)Nc2cccc3c2[C@@H](c2cc(F)ccc2Cl)NC3=O)c2ccc(F)cc21 (single isomer, unassigned) [Compound I-2461] | ≤ 100 | < 1000
6 | O=C1N[C@@H](c2cc(F)ccc2Cl)c2c(NC(=O)N3C[C@@H](O)c4cc(F)ccc43)cc(-c3cnn(C(F)F)c3)cc21 (single isomer, unassigned) [Compound I-2477] | ≤ 100 | < 1000
7 | O=C1N[C@@H](c2cc(F)ccc2Cl)c2c(NC(=O)N3C[C@@](O)(C(F)F)c4ccccc43)cccc21 (single isomer, unassigned) [Compound I-2487] | ≤ 100 | < 1000
8 | O=C1N[C@@H](c2cc(F)ccc2Cl)c2c(NC(=O)N3C[C@](O)(C(F)(F)F)c4cc(F)ccc43)ccc(-n3cccn3)c21 (single isomer, unassigned) [Compound I-2497] | ≤ 100 | < 1000
9 | C[C@@H](C#N)Cn1cc(-c2cc(NC(=O)N3C[C@@H](O)c4cc(F)ccc43)c3c(c2)C(=O)N[C@H]3c2cc(F)ccc2Cl)cn1 (single isomer, unassigned) [Compound I-2503] | ≤ 100 | 5000 to 10000
10 | O=C1N[C@@H](c2cc(F)ccc2Cl)c2c(NC(=O)N3C[C@@](O)(C(F)(F)F)c4ccccc43)cc(Cl)cc21 (single isomer, unassigned) [Compound I-2509] | ≤ 100 | < 1000
11 | O=C1N[C@@H](c2cc(F)ccc2Cl)c2c(NC(=O)N3C[C@@](O)(C(F)(F)F)c4cc(F)ccc43)cc(Cl)cc21 (single isomer, unassigned) [Compound I-2513] | ≤ 100 | < 1000
12 | O=C1N[C@@H](c2cc(F)ccc2Cl)c2c(NC(=O)N3C[C@@](O)(C(F)(F)F)c4cc(F)ccc43)cccc21 (single isomer, unassigned) [Compound I-2518] | ≤ 100 | < 1000
13 | O=C1N[C@@H](c2cc(F)ccc2Cl)c2c(NC(=O)N3C[C@](O)(C(F)(F)F)c4cc(F)ccc43)ccc(-n3ccnn3)c21 (single isomer, unassigned) [Compound I-2520] | ≤ 100 | < 1000
14 | O=C1N[C@@H](c2cc(F)ccc2Cl)c2c(NC(=O)N3C[C@](O)(C(F)(F)F)c4cc(F)ccc43)ccc(-n3nccn3)c21 (single isomer, unassigned) [Compound I-2525] | ≤ 100 | < 1000
15 | N#CCc1cc(NC(=O)N2C[C@@H](O)c3cc(F)ccc32)c2c(c1)C(=O)N[C@H]2c1cc(F)ccc1Cl (single isomer, unassigned) [Compound I-2537] | ≤ 100 | < 1000
16 | COCc1cc(NC(=O)N2C[C@@](O)(C(F)(F)F)c3cc(F)ccc32)c2c(c1)C(=O)N[C@@H]2c1cc(F)ccc1Cl (single isomer, unassigned) [Compound I-2541] | ≤ 100 | < 1000
17 | O=C1N[C@H](c2cc(F)ccc2Cl)c2c(NC(=O)N3C[C@@](O)(C(F)(F)F)c4cc(F)ccc43)cc(-n3ccnn3)cc21 (single isomer, unassigned) [Compound I-2547] | ≤ 100 | < 1000

Reference: patent US12581252B2, “Substituted pyrrolo[3,4-b]pyridines as PI3K-α inhibitors” (Relay Therapeutics, Inc., priority 2020, dated 2026)
